The text below walks through data of patent publication US9833455B2, “Preparation and methods of use for ortho-aryl 5-membered heteroaryl-carboxamide containing multi-targeted kinase inhibitors” (Spacefill Enterprises LLC, priority 2011, dated 2017).

Each structure is given as a SMILES string.

One test addresses FLT3 (Homo sapiens, UniProt P36888). Kind of test: Nanosyn kinase profiling, % inhibition. The test is classed as biochemical. Particulars: panel of 230 kinases. Here is the method:
(§1) “Inhibiting kinase activity” means to decrease the production of an phosphor-peptide by a particular kinase that can be separated by analytical techniques. For example, a comprehensive platform of kinase, protease, phosphatase and epigenetic assays that utilizes cutting-edge microfluidics and informatics tools to provide accurate and rapid results. Profiling data in this application were determined using these techniques at Nanosyn Inc. IC50 data were provided by Reaction Biology Inc using a P33 radiolabeled kinase assay.
(§2) A total of 15 new inhibitors were designed, prepared, and evaluated against a panel of 29 selected kinases in order to explore the applicability, SAR trends, and the tunability of this scaffold that could be imposed but this unique geometry, Table 21. Inhibitors I-1 to 1-12 all retained the 2-CF3-5-(4-F-phenyl) imidazole-4-carboxamide scaffold previously described (Deitrich, 2010), but explored different Hinge-Gatekeeper Motifs (HGM).
(§3) More modest activity for Aurora-A, FLT-1/4, KDR, KIT, PDGFRs was accompanied by better activity for B-Raf mutant and wild-type forms, Modest inhibition of MEK-1, BTK, c-Met, RET, and RON was also observed. […] Moreover, the observed inhibition of MEK-1 with 1-12 and TYK2 with I-6 represents additional activities against kinases for which no type-II inhibitors have been reported to date. […] To further evaluate the scope of inhibition, I-6 was evaluated against a larger panel of 230 kinases, Table-22.

The target in another test is CRAF (Homo sapiens, UniProt P04049). The test is described as follows: Nanosyn kinase profiling, % inhibition. The test is classed as biochemical. The note with it: panel of 230 kinases. The procedure: as §1, §2, §3
A further test addresses P38-α (Homo sapiens, UniProt Q16539). Kind of test: Nanosyn kinase profiling, % inhibition. The test is classed as biochemical. The note with it: panel of 230 kinases. Here is the method:
as §1, §2, §3

The target in a further test is FLT1 (Homo sapiens, UniProt P17948). The test is described as follows: Nanosyn kinase profiling, % inhibition. The test is classed as biochemical. The note with it: panel of 230 kinases. Here is the method:
as §1, §2, §3

The next test addresses T1, DDR2 (Homo sapiens, UniProt Q16832).
T1 sequence (Q16832 22-855): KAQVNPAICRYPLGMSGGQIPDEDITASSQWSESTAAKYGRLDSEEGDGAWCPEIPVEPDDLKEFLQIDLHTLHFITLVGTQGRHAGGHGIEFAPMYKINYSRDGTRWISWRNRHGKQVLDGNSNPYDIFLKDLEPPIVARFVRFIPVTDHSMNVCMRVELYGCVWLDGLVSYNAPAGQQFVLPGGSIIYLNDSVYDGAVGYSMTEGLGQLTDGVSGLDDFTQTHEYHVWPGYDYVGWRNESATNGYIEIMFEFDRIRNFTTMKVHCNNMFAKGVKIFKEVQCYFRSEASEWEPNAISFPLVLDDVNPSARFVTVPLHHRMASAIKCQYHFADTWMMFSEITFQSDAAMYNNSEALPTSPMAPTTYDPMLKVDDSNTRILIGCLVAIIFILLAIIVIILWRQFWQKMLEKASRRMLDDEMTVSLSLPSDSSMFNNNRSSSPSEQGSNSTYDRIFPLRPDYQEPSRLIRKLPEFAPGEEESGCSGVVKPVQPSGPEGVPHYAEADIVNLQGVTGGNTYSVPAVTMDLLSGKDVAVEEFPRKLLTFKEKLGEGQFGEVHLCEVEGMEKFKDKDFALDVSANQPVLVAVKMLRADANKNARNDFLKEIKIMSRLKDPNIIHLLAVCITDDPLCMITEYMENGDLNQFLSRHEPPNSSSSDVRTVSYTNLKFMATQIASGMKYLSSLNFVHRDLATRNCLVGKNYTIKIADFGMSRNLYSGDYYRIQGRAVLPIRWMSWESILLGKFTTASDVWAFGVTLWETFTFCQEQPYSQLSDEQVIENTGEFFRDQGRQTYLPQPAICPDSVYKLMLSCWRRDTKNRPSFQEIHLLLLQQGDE
Kind of test: Nanosyn kinase profiling, % inhibition. The test is classed as biochemical. Particulars: panel of 230 kinases. Here is the method:
as §1, §2, §3

The target in another test is T2, CSF1R (Homo sapiens, UniProt P07333).
T2 construct: literature Ambit Biosciences
T2 sequence (P07333 20-972): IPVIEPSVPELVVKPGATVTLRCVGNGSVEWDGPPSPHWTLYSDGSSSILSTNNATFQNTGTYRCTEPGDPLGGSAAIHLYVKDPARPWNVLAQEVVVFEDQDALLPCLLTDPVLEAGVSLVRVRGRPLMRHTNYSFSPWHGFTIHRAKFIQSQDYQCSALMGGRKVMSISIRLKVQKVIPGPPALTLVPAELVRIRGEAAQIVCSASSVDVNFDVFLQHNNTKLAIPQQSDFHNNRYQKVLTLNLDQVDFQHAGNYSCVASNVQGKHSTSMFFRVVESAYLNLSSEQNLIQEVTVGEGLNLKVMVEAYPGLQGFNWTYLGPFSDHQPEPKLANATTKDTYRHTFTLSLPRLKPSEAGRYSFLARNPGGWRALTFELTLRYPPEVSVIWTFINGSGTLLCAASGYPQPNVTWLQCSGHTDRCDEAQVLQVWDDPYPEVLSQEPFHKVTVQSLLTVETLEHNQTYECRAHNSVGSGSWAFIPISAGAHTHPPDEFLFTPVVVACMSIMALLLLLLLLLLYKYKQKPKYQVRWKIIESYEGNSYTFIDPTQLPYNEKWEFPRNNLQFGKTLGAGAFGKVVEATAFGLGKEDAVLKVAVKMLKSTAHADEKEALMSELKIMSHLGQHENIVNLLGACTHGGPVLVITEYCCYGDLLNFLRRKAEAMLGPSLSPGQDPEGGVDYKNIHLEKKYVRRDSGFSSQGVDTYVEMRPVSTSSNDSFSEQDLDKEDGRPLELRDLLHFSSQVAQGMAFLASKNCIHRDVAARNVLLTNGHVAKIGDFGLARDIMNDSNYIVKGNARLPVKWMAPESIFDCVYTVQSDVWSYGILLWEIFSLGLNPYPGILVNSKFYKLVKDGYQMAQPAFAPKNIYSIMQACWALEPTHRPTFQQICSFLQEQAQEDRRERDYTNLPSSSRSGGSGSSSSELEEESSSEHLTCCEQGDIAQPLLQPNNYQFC
The note with it: cited from earlier work.

Another test addresses T3, VEGFR2 (Homo sapiens, UniProt P35968).
T3 construct: literature Ambit Biosciences
Particulars: 1 μM, duplicate, without preincubation; cited from earlier work.

In the next test the target is T4, MKNK2 (Homo sapiens, UniProt Q9HBH9).
T4 construct: literature Ambit Biosciences
T4 sequence (Q9HBH9 whole entry): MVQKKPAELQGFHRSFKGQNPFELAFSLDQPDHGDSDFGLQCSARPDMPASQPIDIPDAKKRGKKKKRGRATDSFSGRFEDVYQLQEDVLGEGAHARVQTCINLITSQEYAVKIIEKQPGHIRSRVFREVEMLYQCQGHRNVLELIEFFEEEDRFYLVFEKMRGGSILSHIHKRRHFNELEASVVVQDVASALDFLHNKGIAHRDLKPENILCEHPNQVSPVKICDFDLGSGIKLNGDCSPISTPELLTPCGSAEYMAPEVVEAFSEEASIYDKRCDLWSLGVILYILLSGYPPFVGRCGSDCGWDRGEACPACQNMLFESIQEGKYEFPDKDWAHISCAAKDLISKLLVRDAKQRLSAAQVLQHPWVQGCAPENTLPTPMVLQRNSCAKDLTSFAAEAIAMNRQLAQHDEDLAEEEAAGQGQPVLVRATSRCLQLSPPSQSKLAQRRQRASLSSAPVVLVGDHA
The note with it: 1 μM, duplicate, without preincubation; cited from earlier work.

In another test the target is EPHA2 (Homo sapiens, UniProt P29317). Set-up: literature Ambit Biosciences. Particulars: 1 μM, duplicate, without preincubation; cited from earlier work.
Chain of EPHA2 (P29317 24-976): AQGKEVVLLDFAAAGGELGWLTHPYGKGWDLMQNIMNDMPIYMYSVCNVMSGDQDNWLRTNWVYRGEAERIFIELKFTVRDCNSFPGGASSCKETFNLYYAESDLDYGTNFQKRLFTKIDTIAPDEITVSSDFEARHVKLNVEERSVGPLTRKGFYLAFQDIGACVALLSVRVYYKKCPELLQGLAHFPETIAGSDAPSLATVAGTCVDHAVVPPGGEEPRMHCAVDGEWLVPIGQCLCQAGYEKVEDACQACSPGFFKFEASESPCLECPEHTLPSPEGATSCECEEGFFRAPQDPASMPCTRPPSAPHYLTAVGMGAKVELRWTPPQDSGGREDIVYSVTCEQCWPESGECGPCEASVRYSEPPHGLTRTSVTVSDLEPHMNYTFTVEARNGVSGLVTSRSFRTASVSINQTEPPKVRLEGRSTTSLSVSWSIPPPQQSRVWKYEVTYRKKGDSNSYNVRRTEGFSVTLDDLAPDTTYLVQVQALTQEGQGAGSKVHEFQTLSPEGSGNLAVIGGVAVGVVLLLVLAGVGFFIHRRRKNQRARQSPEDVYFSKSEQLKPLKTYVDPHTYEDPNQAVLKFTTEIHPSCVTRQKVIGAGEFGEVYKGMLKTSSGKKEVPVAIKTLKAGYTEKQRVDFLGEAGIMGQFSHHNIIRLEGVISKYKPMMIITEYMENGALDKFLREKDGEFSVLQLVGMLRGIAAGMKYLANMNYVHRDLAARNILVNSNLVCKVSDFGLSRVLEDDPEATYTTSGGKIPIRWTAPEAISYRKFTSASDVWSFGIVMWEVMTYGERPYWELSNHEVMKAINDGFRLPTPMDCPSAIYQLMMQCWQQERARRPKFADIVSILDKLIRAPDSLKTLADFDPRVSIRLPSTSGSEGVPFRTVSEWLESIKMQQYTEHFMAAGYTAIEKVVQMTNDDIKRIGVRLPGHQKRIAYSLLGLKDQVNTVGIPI
A further test has as its target T5, FGFR3 (Homo sapiens, UniProt P22607).
T5 construct: literature Ambit Biosciences
Particulars: 1 μM, duplicate, without preincubation; cited from earlier work.

For another test, the target named is T6, KIT(D816V) (Homo sapiens, UniProt P10721, D816V).
T6 construct: literature Ambit Biosciences
The note with it: 1 μM, duplicate, without preincubation; cited from earlier work.

A further test has as its target T7, ULK2 (Homo sapiens, UniProt Q8IYT8).
T7 construct: literature Ambit Biosciences
Particulars: 1 μM, duplicate, without preincubation; cited from earlier work.

For a further test, the target named is T8, CDK3 (Homo sapiens, UniProt Q00526).
T8 construct: literature Ambit Biosciences
T8 sequence (Q00526 whole entry): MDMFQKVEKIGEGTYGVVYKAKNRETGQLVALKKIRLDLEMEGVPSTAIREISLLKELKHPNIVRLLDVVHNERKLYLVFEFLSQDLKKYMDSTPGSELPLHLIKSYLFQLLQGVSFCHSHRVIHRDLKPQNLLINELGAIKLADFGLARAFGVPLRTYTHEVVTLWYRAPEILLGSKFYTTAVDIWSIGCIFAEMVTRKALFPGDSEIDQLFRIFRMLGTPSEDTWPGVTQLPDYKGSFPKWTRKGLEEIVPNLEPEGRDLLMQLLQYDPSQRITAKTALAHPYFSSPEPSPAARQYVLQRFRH
Particulars: 1 μM, duplicate, without preincubation; cited from earlier work.

In a further test the target is T9, PCTK1 (Homo sapiens, UniProt Q00536).
T9 construct: literature Ambit Biosciences
T9 sequence (Q00536 whole entry): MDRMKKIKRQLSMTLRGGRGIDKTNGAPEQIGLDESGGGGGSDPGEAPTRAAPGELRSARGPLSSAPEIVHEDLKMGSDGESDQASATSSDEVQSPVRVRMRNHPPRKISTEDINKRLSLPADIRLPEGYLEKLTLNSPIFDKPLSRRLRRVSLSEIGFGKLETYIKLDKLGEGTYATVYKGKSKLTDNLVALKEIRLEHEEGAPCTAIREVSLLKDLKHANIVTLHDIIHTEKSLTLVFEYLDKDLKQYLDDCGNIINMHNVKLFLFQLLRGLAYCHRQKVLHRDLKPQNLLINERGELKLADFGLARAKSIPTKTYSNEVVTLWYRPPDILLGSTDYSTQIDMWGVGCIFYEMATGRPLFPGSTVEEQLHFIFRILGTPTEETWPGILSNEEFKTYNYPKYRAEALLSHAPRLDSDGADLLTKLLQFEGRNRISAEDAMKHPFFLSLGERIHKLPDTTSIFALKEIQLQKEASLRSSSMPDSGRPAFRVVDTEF
The note with it: 1 μM, duplicate, without preincubation; cited from earlier work.

Chain of FLT1 (P17948 27-1338): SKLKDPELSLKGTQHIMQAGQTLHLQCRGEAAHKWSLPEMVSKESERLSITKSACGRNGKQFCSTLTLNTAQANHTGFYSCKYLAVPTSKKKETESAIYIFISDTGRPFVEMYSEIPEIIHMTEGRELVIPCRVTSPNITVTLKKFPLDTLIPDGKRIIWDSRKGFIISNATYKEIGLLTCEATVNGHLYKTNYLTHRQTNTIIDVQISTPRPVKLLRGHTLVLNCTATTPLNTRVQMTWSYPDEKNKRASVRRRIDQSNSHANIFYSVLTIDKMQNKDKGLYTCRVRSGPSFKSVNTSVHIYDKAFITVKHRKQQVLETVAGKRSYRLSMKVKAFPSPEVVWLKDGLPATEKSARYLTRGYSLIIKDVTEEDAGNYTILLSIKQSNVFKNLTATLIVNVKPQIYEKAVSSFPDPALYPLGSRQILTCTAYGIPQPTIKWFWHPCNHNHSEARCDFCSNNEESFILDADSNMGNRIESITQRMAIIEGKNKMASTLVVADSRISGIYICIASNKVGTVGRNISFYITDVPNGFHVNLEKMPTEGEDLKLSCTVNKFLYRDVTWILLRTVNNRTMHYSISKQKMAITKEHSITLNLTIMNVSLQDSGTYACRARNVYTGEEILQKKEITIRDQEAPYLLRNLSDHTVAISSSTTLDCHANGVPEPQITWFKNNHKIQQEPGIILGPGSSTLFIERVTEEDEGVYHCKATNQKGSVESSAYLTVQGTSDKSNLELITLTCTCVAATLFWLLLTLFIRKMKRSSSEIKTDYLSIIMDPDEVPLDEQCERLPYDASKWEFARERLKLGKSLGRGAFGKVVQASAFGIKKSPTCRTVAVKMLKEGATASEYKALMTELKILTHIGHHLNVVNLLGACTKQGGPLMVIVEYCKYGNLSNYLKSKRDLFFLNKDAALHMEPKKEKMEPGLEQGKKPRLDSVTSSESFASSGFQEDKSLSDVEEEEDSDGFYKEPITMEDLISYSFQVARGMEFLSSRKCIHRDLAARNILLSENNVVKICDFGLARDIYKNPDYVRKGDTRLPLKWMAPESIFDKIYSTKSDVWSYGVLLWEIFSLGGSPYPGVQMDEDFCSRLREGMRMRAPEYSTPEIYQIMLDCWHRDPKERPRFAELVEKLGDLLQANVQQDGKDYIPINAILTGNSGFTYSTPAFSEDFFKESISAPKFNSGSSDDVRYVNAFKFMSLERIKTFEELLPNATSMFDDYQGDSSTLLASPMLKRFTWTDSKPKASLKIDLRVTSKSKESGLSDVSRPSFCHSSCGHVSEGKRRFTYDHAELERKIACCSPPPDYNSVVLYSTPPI
Chain of P38-α (Q16539 whole entry): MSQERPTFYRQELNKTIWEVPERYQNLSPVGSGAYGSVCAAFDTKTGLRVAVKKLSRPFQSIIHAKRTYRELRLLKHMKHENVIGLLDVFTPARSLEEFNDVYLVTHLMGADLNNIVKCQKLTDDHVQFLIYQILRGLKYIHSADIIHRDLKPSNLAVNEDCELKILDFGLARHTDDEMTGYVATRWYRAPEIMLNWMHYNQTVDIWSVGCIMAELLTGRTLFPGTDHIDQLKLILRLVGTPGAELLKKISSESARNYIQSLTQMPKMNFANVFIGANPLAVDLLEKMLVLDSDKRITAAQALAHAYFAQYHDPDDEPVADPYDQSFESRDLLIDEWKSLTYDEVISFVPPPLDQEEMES

`CNC(=O)c1cc(Oc2ccc(NC(=O)c3nc(C(F)(F)F)[nH]c3-c3ccc(F)cc3)cc2)ccn1` [Inhibitor I-6, 4-(4-{[5-(4-Fluoro-phenyl)-2-trifluoromethyl-3H-imidazole-4-carbonyl]-amino}-phenoxy)-pyridine-2-carboxylic acid methylamide]: the inhibition at 5 µM at FLT3, on CRAF, against P38-α, against FLT1 and against DDR2 was at least 50% in each case.

Take `Cc1ccc(NC(=O)c2[nH]c(C(F)(F)F)nc2-c2ccc(F)cc2)cc1Nc1ccc2ncn(C)c(=O)c2c1` [KIN-035]: the “improved potency for CSF1R, KIN-032 vs KIN-035 (4-fluoro-substituent)” value on CSF1R is 70 fold. Besides, the “inhibition of VEGFR2” value at VEGFR2 is on record as “X (X > 25% @ 1 μM)”. In addition, the “inhibition of MKNK2” value at MKNK2 was “X (X > 25% @ 1 μM)”. The “inhibition of EPHA2” value on EPHA2 is given as “XX (XX > 50% @ 1 μM)”.

In the case of `Cc1ccc(-c2nc(C(F)(F)F)[nH]c2C(=O)Nc2ccc(C)c(Nc3ccc4ncn(C)c(=O)c4c3)c2)cc1F` [KIN-038], the “inhibition of FGFR3” value on FGFR3 was “X (X > 25% @ 1 μM)”. In addition, at KIT(D816V), the “inhibition of KIT(D816V)” value is “X (X > 25% @ 1 μM)”. Besides, on ULK2, the “inhibition of ULK2” value is “X (X > 25% @ 1 μM)”. Besides, the “inhibition of CDK3” value on CDK3 is on record as “X (X > 25% @ 1 μM)”. The “inhibition of PCTK1” value on PCTK1 was “X (X > 25% @ 1 μM)”.
